SMILES strings stand for the structures. pEC50: −log10 of the molar value.

This test deals with HEK293T cells carrying the ATF4 luciferase reporter. In words: ATF4-Luc assay, in vitro model of Vanishing Cell White Matter Disease (VWMD). It is filed as cell-based. The note with it: Homo sapiens, HEK-293T, 1 μg/mL tunicamycin, 7 hours, One Glo luminescence. An outline of the steps:
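Compound at 200 nM and tunicamycin at 1 μg/mL were given together for 7 h to HEK293T cells stably transduced with an ATF4 5′-UTR-driven firefly luciferase reporter. Read-out by luminescence, reported as EC50.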
Usually pEC50 stands for −log10 of the EC50, conventionally taken in molar units. For `O=C(COc1ccc(Cl)c(F)c1)NC12CC(NC(=O)c3ncc(Cl)cc3F)(C1)C2` [Compound 770, 5-chloro-N-{3-[2-(4-chloro-3-fluorophenoxy)acetamido]bicyclo[1.1.1]pentan-1-yl}-3-fluoropyridine-2-carboxamide], the pEC50 is 5.70 to 6.00.

Consider `CN(C)c1ccc(C(=O)NC23CC(NC(=O)COc4ccc(Cl)c(F)c4)(C2)C3)cc1` [Compound 536, N-{3-[2-(4-chloro-3-fluorophenoxy)acetamido]bicyclo[1.1.1]pentan-1-yl}-4-(dimethylamino)benzamide], for which the pEC50 was 6.00 to 6.60. For the compound `O=C(COc1ccc(Cl)c(F)c1)NC12CCC(NC(=O)c3cnon3)(CC1)CC2O` (centres unmarked) [Compound 634, N-{4-[2-(4-chloro-3-fluorophenoxy)acetamido]-3-hydroxybicyclo[2.2.2]octan-1-yl}-1,2,5-oxadiazole-3-carboxamide], the pEC50 is below 5.70. For `Cc1cc(C(=O)NC23CCC(NC(=O)COc4ccc(Cl)c(F)c4)(CC2)C(O)C3)oc1C` (centres unmarked) [Compound 474, N-{4-[2-(4-chloro-3-fluorophenoxy)acetamido]-3-hydroxybicyclo[2.2.2]octan-1-yl}-4,5-dimethylfuran-2-carboxamide] the value was 6.60 to 7.30. For `Cc1nc2ccc(C(=O)NC34CC(NC(=O)COc5ccc(Cl)c(F)c5)(C3)C4)cc2nc1C` [Compound 779, N-{3-[2-(4-chloro-3-fluorophenoxy)acetamido]bicyclo[1.1.1]pentan-1-yl}-2,3-dimethylquinoxaline-6-carboxamide], the pEC50 was below 5.70. For the compound `COc1ccc(C(=O)NC23CCC(NC(=O)COc4ccc(Cl)c(F)c4)(CC2)C(O)C3)nc1` (centres unmarked) [Compound 922, N-{4-[2-(4-chloro-3-fluorophenoxy)acetamido]-3-hydroxybicyclo[2.2.2]octan-1-yl}-5-methoxypyridine-2-carboxamide], the pEC50 is 6.00 to 6.60.

For the compound `O=C(COc1ccc(Cl)c(F)c1)NC12CC(Nc3ccc(C(F)(F)F)nn3)(C1)C2` [Compound 127, 2-(4-chloro-3-fluorophenoxy)-N-(3-{[6-(trifluoromethyl)pyridazin-3-yl]amino}bicyclo[1.1.1]pentan-1-yl)acetamide], the pEC50 is below 5.70. Regarding `Cc1nc(C(=O)NC23CCC(NC(=O)COc4ccc(Cl)c(F)c4)(CC2)C(O)C3)co1` (centres unmarked) [Compound 467, N-{4-[2-(4-chloro-3-fluorophenoxy)acetamido]-3-hydroxybicyclo[2.2.2]octan-1-yl}-2-methyl-1,3-oxazole-4-carboxamide], the pEC50 is 6.60 to 7.30. Turning to `O=C(COc1ccc(Cl)c(F)c1)NC12CCC(NC(=O)c3cccs3)(CC1)CC2O` (centres unmarked) [Compound 611, N-{4-[2-(4-chloro-3-fluorophenoxy)acetamido]-3-hydroxybicyclo[2.2.2]octan-1-yl}thiophene-2-carboxamide], the pEC50 was above 7.30. For the compound `Cc1ccc2nc(C(=O)NC34CC(NC(=O)COc5ccc(Cl)c(F)c5)(C3)C4)cn2c1` [Compound 787, N-{3-[2-(4-chloro-3-fluorophenoxy)acetamido]bicyclo[1.1.1]pentan-1-yl}-6-methylimidazo[1,2-a]pyridine-2-carboxamide], the pEC50 is below 5.70.

Turning to `CCCc1nc(C(=O)NC23CCC(NC(=O)COc4ccc(Cl)c(F)c4)(CC2)C(O)C3)cs1` (centres unmarked) [Compound 502, N-{4-[2-(4-chloro-3-fluorophenoxy)acetamido]-3-hydroxybicyclo[2.2.2]octan-1-yl}-2-propyl-1,3-thiazole-4-carboxamide], the pEC50 was above 7.30. For `O=C(COc1ccc(Cl)c(F)c1)NC12CCC(NC(=O)c3cc(F)ccn3)(CC1)CC2O` (centres unmarked) [Compound 936, N-{4-[2-(4-chloro-3-fluorophenoxy)acetamido]-3-hydroxybicyclo[2.2.2]octan-1-yl}-4-fluoropyridine-2-carboxamide] the value was 6.60 to 7.30; for `CC(C)c1nc(C(=O)NC23CCC(NC(=O)COc4ccc(Cl)c(F)c4)(CC2)C(O)C3)co1` (centres unmarked) [Compound 607, N-{4-[2-(4-chloro-3-fluorophenoxy)acetamido]-3-hydroxybicyclo[2.2.2]octan-1-yl}-2-(propan-2-yl)-1,3-oxazole-4-carboxamide], 6.60 to 7.30; for `O=C(COc1ccc(Cl)c(Cl)c1)NC12CC(NC(=O)c3cccc(CO)n3)(C1)C2` [Compound 165, N-{3-[2-(3,4-dichlorophenoxy)acetamido]bicyclo[1.1.1]pentan-1-yl}-6-(hydroxymethyl)pyridine-2-carboxamide], below 5.70. As for `COc1ccccc1C(=O)NC12CC(NC(=O)COc3ccc(Cl)c(F)c3)(C1)C2` [Compound 529, N-{3-[2-(4-chloro-3-fluorophenoxy)acetamido]bicyclo[1.1.1]pentan-1-yl}-2-methoxybenzamide], the figure is below 5.70; as for `CCN(CC)c1cccc(C(=O)NC23CC(NC(=O)COc4ccc(Cl)c(F)c4)(C2)C3)c1` [Compound 543, N-{3-[2-(4-chloro-3-fluorophenoxy)acetamido]bicyclo[1.1.1]pentan-1-yl}-3-(diethylamino)benzamide], below 5.70. For `CS(=O)(=O)Nc1cccc(C(=O)NC23CC(NC(=O)COc4ccc(Cl)c(F)c4)(C2)C3)c1` [Compound 851, N-{3-[2-(4-chloro-3-fluorophenoxy)acetamido]bicyclo[1.1.1]pentan-1-yl}-3-[(methanesulfonyl)amino]benzamide], the pEC50 was 6.00 to 6.60. Take `O=C(COc1ccc(Cl)c(F)c1)NC12CC(NC(=O)c3ccc(F)cn3)(C1)C2` [Compound 262, N-{3-[2-(4-chloro-3-fluorophenoxy)acetamido]bicyclo[1.1.1]pentan-1-yl}-5-fluoropyridine-2-carboxamide]: the pEC50 was 6.60 to 7.30. As for `CCc1ccc(C(=O)NC23CC(NC(=O)COc4ccc(Cl)c(Cl)c4)(C2)C3)nc1` [Compound 700, N-{3-[2-(3,4-dichlorophenoxy)acetamido]bicyclo[1.1.1]pentan-1-yl}-5-ethylpyridine-2-carboxamide], the figure is above 7.30. Consider `CN(C)c1cccc(C(=O)NC23CC(NC(=O)COc4ccc(Cl)c(F)c4)(C2)C3)c1` [Compound 534, N-{3-[2-(4-chloro-3-fluorophenoxy)acetamido]bicyclo[1.1.1]pentan-1-yl}-3-(dimethylamino)benzamide], for which the pEC50 was 6.00 to 6.60.

In the case of `O=C(COc1ccc(Cl)c(F)c1)NC12CCC(NC(=O)c3cccnc3)(CC1)C(O)C2` (centres unmarked) [Compound 217, N-{4-[2-(4-chloro-3-fluorophenoxy)acetamido]-2-hydroxybicyclo[2.2.2]octan-1-yl}pyridine-3-carboxamide], the pEC50 was 5.70 to 6.00. As for `CCc1cc(C(=O)NC23CC(NC(=O)COc4ccc(Cl)c(F)c4)(C2)C3)on1` [Compound 323, N-{3-[2-(4-chloro-3-fluorophenoxy)acetamido]bicyclo[1.1.1]pentan-1-yl}-3-ethyl-1,2-oxazole-5-carboxamide], the figure is 6.00 to 6.60; as for `CCc1cnc(C(=O)NC23CCC(NC(=O)COc4ccc(Cl)c(F)c4)(C2)C3)cn1` [Compound 712, N-{4-[2-(4-chloro-3-fluorophenoxy)acetamido]bicyclo[2.1.1]hexan-1-yl}-5-ethylpyrazine-2-carboxamide], 6.00 to 6.60. As for `CCc1cc(C(=O)NC23CC(NC(=O)COc4ccc5c(c4)OC(F)(F)O5)(C2)C3)n(C)n1` [Compound 399, N-(3-{2-[(2,2-difluoro-2H-1,3-benzodioxol-5-yl)oxy]acetamido}bicyclo[1.1.1]pentan-1-yl)-3-ethyl-1-methyl-1H-pyrazole-5-carboxamide], the figure is 6.00 to 6.60; as for `Cn1ccc(C(=O)NC23CC(NC(=O)COc4ccc(Cl)c(Cl)c4)(C2)C3)n1` [Compound 713, N-{3-[2-(3,4-dichlorophenoxy)acetamido]bicyclo[1.1.1]pentan-1-yl}-1-methyl-1H-pyrazole-3-carboxamide], 6.60 to 7.30; as for `O=C(COc1ccc(F)c(F)c1)NC12CC(Nc3cnc(-c4cccnc4)cn3)(C1)C2` [Compound 731, 2-(3,4-difluorophenoxy)-N-(3-{[5-(pyridin-3-yl)pyrazin-2-yl]amino}bicyclo[1.1.1]pentan-1-yl)acetamide], 5.70 to 6.00. Regarding `Cc1cnn2ccc(NC34CC(NC(=O)COc5ccc(Cl)c(F)c5)(C3)C4)nc12` [Compound 610, 2-(4-chloro-3-fluorophenoxy)-N-{3-[(3-methylpyrazolo[1,5-a]pyrimidin-5-yl)amino]bicyclo[1.1.1]pentan-1-yl}acetamide], the pEC50 is 5.70 to 6.00. As for `O=C(COc1ccc(Cl)c(F)c1)NC12CC(NC(=O)c3cnc(C4=CCC(O)CC4)o3)(C1)C2` (centres unmarked) [Compound 163, N-{3-[2-(4-chloro-3-fluorophenoxy)acetamido]bicyclo[1.1.1]pentan-1-yl}-2-(4-hydroxycyclohex-1-en-1-yl)-1,3-oxazole-5-carboxamide], the figure is 5.70 to 6.00; as for `O=C(COc1ccc(Cl)c(F)c1)NC12CCC(NC(=O)c3cn4ccccc4n3)(CC1)CC2O` (centres unmarked) [Compound 601, N-{4-[2-(4-chloro-3-fluorophenoxy)acetamido]-3-hydroxybicyclo[2.2.2]octan-1-yl}imidazo[1,2-a]pyridine-2-carboxamide], 6.00 to 6.60. For `COc1cc(C(=O)NC23CC(NC(=O)COc4ccc(Cl)c(F)c4)(C2)C3)on1` [Compound 253, N-{3-[2-(4-chloro-3-fluorophenoxy)acetamido]bicyclo[1.1.1]pentan-1-yl}-3-methoxy-1,2-oxazole-5-carboxamide] the value was 6.60 to 7.30.

As for `Cc1cc(C)nc(C(=O)NC23CC(NC(=O)COc4ccc(Cl)c(F)c4)(C2)C3)c1` [Compound 889, N-{3-[2-(4-chloro-3-fluorophenoxy)acetamido]bicyclo[1.1.1]pentan-1-yl}-4,6-dimethylpyridine-2-carboxamide], the pEC50 is 5.70 to 6.00.

For the compound `O=C(COc1ccc(Cl)c(F)c1)NC12CC(NC(=O)c3cnn(C(F)F)c3)(C1)C2` [Compound 724, N-{3-[2-(4-chloro-3-fluorophenoxy)acetamido]bicyclo[1.1.1]pentan-1-yl}-1-(difluoromethyl)-1H-pyrazole-4-carboxamide], the pEC50 is 6.00 to 6.60.

Source of the values: patent US10913727B2, “Modulators of the integrated stress pathway” (Calico Life Sciences LLC, priority 2016, dated 2021).
